What was measured:
Assay type in all cases: in vivo
[1] = test system: maize Dk 261; test: Postemergence test, greenhouse; settings: halosulfuron 100 g/ha, after 20 days
Description: (§1) A synergistic effect is always obtained when the herbicidal action of the combination of compound I and 2.1 to 2.33 is greater than the sum of the action of the individual herbicides.
(§2) The expected herbicidal action We for a given combination of two herbicides can be calculated as follows (q.v. COLBY, S. R., “Calculating synergistic and antagonistic response of herbicide combinations”, Weeds 15, pages 20-22, 1967):
(§3) If the value actually observed is higher than the expected value We, then there is synergism.
(§4) The test plants are grown under greenhouse conditions in plastic pots until reaching the 2-3 leaf stage. Standard soil is used, as the substrate for cultivation. At the 2-3 leaf stage, the herbicides are applied to the test plants on their own and in a mixture. Application is effected in the form of an aqueous suspension of the test substances in 500 1 water/ha. The rates of application depend on the optimum dosages determined under field conditions and greenhouse conditions. Evaluation of the tests is made after 20 days (% activity, 100%=plant perished, 0%=no phytotoxic effect).

[2] = test system: Digitaria; test: Postemergence test, greenhouse; settings: halosulfuron 100 g/ha, after 20 days
Description: as §1, §2, §3, §4

[3] = test system: Ipomoea; test: Pre-emergence test, greenhouse; settings: terbutylazin 200 g/ha, after 26 days
Description: as §1, §2, §3
(§5) The test plants are sown in plastic pots in standard soil under greenhouse conditions. Directly after sowing, the test substances are applied in an aqueous suspension (500 l water/ha). The test plants are then further cultivated in the greenhouse under optimum conditions. The rates of application depend on the optimum dosages determined under field conditions and greenhouse conditions. Evaluation of the tests is made after 26 days (% activity, 100% plant perished, 0%=no phytotoxic effect).

[4] = test system: Xanthium; test: Pre-emergence test, greenhouse; settings: terbutylazin 200 g/ha, after 26 days
Description: as §1, §2, §3, §5

[5] = test system: Convolvulus; test: Pre-emergence test, greenhouse; settings: terbutylazin 200 g/ha, after 26 days
Description: as §1, §2, §3, §5

[6] = test system: Polygonum; test: Pre-emergence test, greenhouse; settings: terbutylazin 200 g/ha, after 26 days
Description: as §1, §2, §3, §5

SMILES	% activity (herbicidal action) [1] [%]	% activity (herbicidal action) [2] [%]	% activity (herbicidal action) [3] [%]	% activity (herbicidal action) [4] [%]	% activity (herbicidal action) [5] [%]	% activity (herbicidal action) [6] [%]
COc1cc(OC)nc(NC(=O)NS(=O)(=O)c2c(C(=O)O)c(Cl)nn2C)n1 [halosulfuron]	5	25				
CCNc1nc(Cl)nc(NC(C)(C)C)n1 [terbutylazin]			30	0	80	60
